From patent US7994209B2, “3-phenoxymethylpyrrolidine compounds” (Theravance, Inc., priority 2009, dated 2011)

Tests used:
hSERT [1] = biological target: T1, hSERT (Homo sapiens, UniProt P31645); assay: hSERT membrane radioligand binding assay (3H-citalopram), Assay 1; conditions: SERT pKi, hSERT HEK-293 membranes, 1.0 nM 3H-citalopram; values given as lower bounds
hNET [2] = biological target: T2, hNET (Homo sapiens, UniProt P23975); assay: hNET neurotransmitter uptake assay (3H-NE), Assay 2; type: cell-based; set-up: expressed in transfected cells; host or cells: HEK-293; conditions: norepinephrine reuptake inhibition, 3H-NE uptake, HEK-293 hNET cells (values without asterisk); read-out: NET pIC50 (converted)
Protocol: (§1) Cells were harvested by centrifugation at 1100 rpm for 5 minutes, washed once by resuspension in PBS, then centrifuged. The supernatant was discarded and the cell pellet resuspended, by gentle trituration, in room temperature Krebs-Ringer bicarbonate buffer containing HEPES (10 mM), CaCl2 (2.2 mM), ascorbic acid (200 μM) and pargyline (200 μM), pH 7.4.
(§2) Test compounds were incubated for 30 minutes at 37° C. with the respective cells, prior to addition of radiolabeled neurotransmitter, ^3H-5-HT (20 nM final concentration), ^3H-NE (50 nM final concentration) or ^3H-DA (100 nM final concentration).

hNET [3] = biological target: T2, hNET; assay: hNET membrane radioligand binding assay (3H-nisoxetine), Assay 1
hSERT [4] = biological target: T1, hSERT; assay: hSERT neurotransmitter uptake assay (3H-5-HT), Assay 2; type: cell-based; set-up: expressed in transfected cells; host or cells: HEK-293; conditions: serotonin reuptake inhibition, 3H-5-HT uptake, HEK-293 hSERT cells (values without asterisk); read-out: SERT pIC50 (converted)
Protocol: as §1, §2

T1 sequence (P31645 whole entry): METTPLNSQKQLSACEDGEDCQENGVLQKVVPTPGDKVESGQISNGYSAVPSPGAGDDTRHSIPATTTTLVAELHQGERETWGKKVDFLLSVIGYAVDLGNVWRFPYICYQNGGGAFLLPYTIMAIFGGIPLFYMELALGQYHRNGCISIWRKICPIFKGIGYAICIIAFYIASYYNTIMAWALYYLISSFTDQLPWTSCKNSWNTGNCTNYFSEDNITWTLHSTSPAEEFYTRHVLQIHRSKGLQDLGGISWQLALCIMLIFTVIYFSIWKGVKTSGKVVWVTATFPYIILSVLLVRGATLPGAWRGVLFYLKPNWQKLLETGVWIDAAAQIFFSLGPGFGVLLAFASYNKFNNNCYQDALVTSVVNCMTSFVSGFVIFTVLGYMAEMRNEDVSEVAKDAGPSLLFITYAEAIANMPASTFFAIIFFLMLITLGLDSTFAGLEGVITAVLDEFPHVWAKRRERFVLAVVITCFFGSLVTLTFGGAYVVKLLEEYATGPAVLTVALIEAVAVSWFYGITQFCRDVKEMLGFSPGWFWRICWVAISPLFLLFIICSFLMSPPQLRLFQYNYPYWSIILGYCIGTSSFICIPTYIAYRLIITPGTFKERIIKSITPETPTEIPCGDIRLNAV
T2 sequence (P23975 whole entry): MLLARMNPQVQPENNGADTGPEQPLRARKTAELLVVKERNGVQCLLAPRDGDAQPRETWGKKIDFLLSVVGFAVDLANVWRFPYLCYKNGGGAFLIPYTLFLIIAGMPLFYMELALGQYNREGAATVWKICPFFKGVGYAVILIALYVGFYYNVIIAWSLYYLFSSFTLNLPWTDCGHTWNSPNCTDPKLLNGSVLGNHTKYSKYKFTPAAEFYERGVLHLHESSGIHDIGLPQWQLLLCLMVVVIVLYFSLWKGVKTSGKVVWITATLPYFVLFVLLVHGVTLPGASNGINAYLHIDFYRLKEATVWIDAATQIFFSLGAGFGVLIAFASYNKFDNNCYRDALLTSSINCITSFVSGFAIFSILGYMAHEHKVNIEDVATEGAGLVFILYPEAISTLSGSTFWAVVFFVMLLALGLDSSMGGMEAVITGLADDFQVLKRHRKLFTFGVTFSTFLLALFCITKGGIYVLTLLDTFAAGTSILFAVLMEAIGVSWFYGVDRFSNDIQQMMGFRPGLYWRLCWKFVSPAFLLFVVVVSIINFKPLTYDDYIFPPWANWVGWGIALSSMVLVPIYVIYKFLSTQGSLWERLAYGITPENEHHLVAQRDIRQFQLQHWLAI

SMILES	Ki (hSERT [1]) [nM]	IC50 (hNET [2]) [nM]	Ki (hNET [3]) [nM]	IC50 (hSERT [4]) [nM]
CC[C@H](Oc1ccc(Cl)cc1Cl)[C@H]1CCNC1 [Example 1, (S)-3-[(S)-1-(2,4-Dichlorophenoxy)propyl]pyrrolidine]	≤ 10	≤ 10	≤ 10	≤ 10
CC[C@H](Oc1cccc(Cl)c1)[C@H]1CCNC1 [Example 2-1, (S)-3-[(S)-1-(3-Chlorophenoxy)propyl]pyrrolidine]	≤ 100	≤ 10	≤ 10	≤ 100
CC[C@H](Oc1ccc(Cl)cc1)[C@H]1CCNC1 [Example 2-2, (S)-3-[(S)-1-(4-Chlorophenoxy)propyl]pyrrolidine]	≤ 10	≤ 10	≤ 10	≤ 10
CC[C@H](Oc1ccc(Cl)c(F)c1)[C@H]1CCNC1 [Example 2-5, (S)-3-[(S)-1-(4-Chloro-3-fluorophenoxy)propyl]pyrrolidine]	≤ 10	≤ 10	≤ 10	≤ 10
CC(C)CC(Oc1cccc(F)c1)C1CCNC1 (stereo not drawn) [Example 10-26, 3-[1-(3-Fluorophenoxy)-3-methylbutyl]pyrrolidine]	≤ 10	≤ 10		≤ 10
Clc1ccc(O[C@H](C2CC2)[C@@H]2CCNC2)c(Cl)c1 [Example 16-21, (R)-3-[(R)cyclopropyl-(2,4-dichlorophenoxy)methyl]pyrrolidine]	≤ 10		≤ 100	
Cc1ccc(O[C@H](C2CC2)[C@@H]2CCNC2)c(Cl)c1 [Example 16-24, (R)-3-[(R)-(2-Chloro-4-methylphenoxy)cyclopropylmethyl]pyrrolidine]	≤ 10		≤ 100	
Cc1ccc(O[C@H](C2CC2)[C@@H]2CCNC2)c(Br)c1 [Example 16-26, (R)-3-[(R)-(2-Bromo-4-methylphenoxy)cyclopropylmethyl]pyrrolidine]	≤ 10		≤ 100	
Cc1ccc(O[C@H](C2CC2)[C@@H]2CCNC2)c(C)c1 [Example 16-27, (R)-3-[(R)cyclopropyl-(2,4-dimethylphenoxy)-methyl]pyrrolidine]	≤ 10		≤ 100	
Cc1cc(Cl)ccc1O[C@H](C1CC1)[C@H]1CCNC1 [Example 16-30, (S)-3-[(R)-(4-Chloro-2-methylphenoxy)cyclopropylmethyl]pyrrolidine]	≤ 10		≤ 100	
Cc1cc(Cl)ccc1O[C@@H](C1CC1)[C@@H]1CCNC1 [Example 16-31, (R)-3-[(S)-(4-Chloro-2-methylphenoxy)cyclopropylmethyl]pyrrolidine]	≤ 10		≤ 100	
Cc1cc(Cl)ccc1O[C@H](C1CC1)[C@@H]1CCNC1 [Example 16-32, (R)-3-[(R)-(4-Chloro-2-methylphenoxy)cyclopropylmethyl]pyrrolidine]	≤ 10		≤ 100	
FC(F)(F)c1cc(Cl)ccc1O[C@@H](C1CC1)[C@H]1CCNC1 [Example 16-35, (S)-3-[(S)-(4-Chloro-2-trifluoromethylphenoxy)cyclopropylmethyl]pyrrolidine]	≤ 10		≤ 10	
FC(F)(F)c1cc(Cl)ccc1O[C@H](C1CC1)[C@@H]1CCNC1 [Example 16-36, (R)-3-[(R)-(4-Chloro-2-trifluoromethylphenoxy)cyclopropylmethyl]pyrrolidine]	≤ 100		≤ 100	
COc1cc(F)ccc1O[C@H](C1CC1)[C@H]1CCNC1 [Example 16-39, (S)-3-[(R)cyclopropyl-(4-fluoro-2-methoxyphenoxy)methyl]pyrrolidine]	≤ 10		≤ 100	
COc1cc(F)ccc1O[C@@H](C1CC1)[C@H]1CCNC1 [Example 16-40, (S)-3-[(S)cyclopropyl-(4-fluoro-2-methoxyphenoxy)methyl]pyrrolidine]	≤ 100		≤ 10	
Clc1ccc(O[C@@H](C2CC2)[C@H]2CCNC2)c(C2CCCCC2)c1 [Example 16-43, (S)-3-[(S)-(4-Chloro-2-cyclohexylphenoxy)cyclopropylmethyl]pyrrolidine]	≤ 100		≤ 10	
Cc1cccc(Cl)c1O[C@@H](C1CC1)[C@H]1CCNC1 [Example 16-45, (S)-3-[(S)-(2-Chloro-6-methylphenoxy)cyclopropylmethyl]pyrrolidine]	≤ 100		≤ 10	
Cc1ccc(Cl)c(O[C@@H](C2CC2)[C@H]2CCNC2)c1F [Example 16-68, (S)-3-[(S)-(6-Chloro-2-fluoro-3-methylphenoxy)cyclopropylmethyl]pyrrolidine]	≤ 100		≤ 10	
Cc1ccc(Cl)c(O[C@H](C2CC2)[C@H]2CCNC2)c1F [Example 16-69, (S)-3-[(R)-(6-Chloro-2-fluoro-3-methylphenoxy)cyclopropylmethyl]pyrrolidine]	≤ 100		≤ 10	

SMILES	Ki (hSERT [1]) [nM]	IC50 (hNET [2]) [nM]	Ki (hNET [3]) [nM]	IC50 (hSERT [4]) [nM]
COc1ccc(Cl)c(O[C@@H](C2CC2)[C@H]2CCNC2)c1F [Example 16-70, (S)-3-[(S)-(6-Chloro-2-fluoro-3-methoxyphenoxy)cyclopropylmethyl]pyrrolidine]	≤ 100		≤ 10	
Clc1cc(Cl)c(O[C@@H](C2CC2)[C@H]2CCNC2)cc1Cl [Example 16-71, (S)-3-[(S)cyclopropyl-(2,4,5-trichlorophenoxy)methyl]pyrrolidine]	≤ 10		≤ 100	
Fc1cc(Cl)cc(Cl)c1O[C@@H](C1CC1)[C@H]1CCNC1 [Example 16-75, (S)-3-[(S)cyclopropyl-(2,4-dichloro-6-fluorophenoxy)methyl]pyrrolidine]	≤ 10		≤ 10	
Cc1cc(Cl)cc(C)c1O[C@@H](C1CC1)[C@H]1CCNC1 [Example 16-82, (S)-3-[(S)-(4-Chloro-2,6-dimethylphenoxy)cyclopropylmethyl]pyrrolidine]	≤ 10		≤ 100	
Cc1cc(O[C@@H](C2CC2)[C@H]2CCNC2)c(Cl)c(C)c1Cl [Example 16-83, (S)-3-[(S)cyclopropyl-(2,4-dichloro-3,5-dimethylphenoxy)-methyl]pyrrolidine]	≤ 10		≤ 100	
Fc1ccc(O[C@H](C2CC2)[C@@H]2CCNC2)cc1Cl [Example 16-90, (R)-3-[(R)-(3-Chloro-4-fluorophenoxy)cyclopropylmethyl]pyrrolidine]	≤ 10		≤ 100	
Fc1cc(O[C@H](C2CC2)[C@@H]2CCNC2)ccc1Cl [Example 16-92, (R)-3-[(R)-(4-Chloro-3-fluorophenoxy)cyclopropylmethyl]pyrrolidine]	≤ 10		≤ 100	
Clc1ccc(O[C@H](C2CC2)[C@H]2CCNC2)cc1 [Example 16-102, (S)-3-[(R)-(4-Chlorophenoxy)cyclopropylmethyl]pyrrolidine]	≤ 10		≤ 100	
FC(F)(F)c1ccc(O[C@@H](C2CC2)[C@H]2CCNC2)cc1 [Example 16-104, (S)-3-[(S)cyclopropyl-(4-trifluoromethylphenoxy)methyl]pyrrolidine]	≤ 10		≤ 100	
Fc1ccccc1O[C@H](C1CCCCC1)[C@H]1CCNC1 [Example 20-1, (S)-3-[(R)-Cyclohexyl-(2-fluorophenoxy)methyl]pyrrolidine]	≤ 100		≤ 10	
COc1ccccc1OC(C1CCCCC1)C1CCNC1 (stereo not drawn) [Example 20-2, 3-[Cyclohexyl-(2-methoxyphenoxy)methyl]pyrrolidine]	≤ 100		≤ 100	
O=[N+]([O-])c1ccccc1O[C@H](C1CCCCC1)[C@H]1CCNC1 [Example 20-3, (S)-3-[(R)-Cyclohexyl-(2-nitrophenoxy)methyl]pyrrolidine]	≤ 100		≤ 10	
CC(=O)c1ccccc1O[C@@H](C1CCCCC1)[C@@H]1CCNC1 [Example 20-4, 1-[2-((R)-Cyclohexyl-(S)-pyrrolidin-3-yl-methoxy)phenyl]ethanone]	≤ 100		≤ 10	
Clc1cc(Cl)cc(OC(C2CCCCC2)C2CCNC2)c1 (stereo not drawn) [Example 20-6, 3-[Cyclohexyl-(3,5-dichlorophenoxy)methyl]pyrrolidine]	≤ 10		≤ 10	
Fc1cccc(O[C@H](C2CCCCC2)[C@H]2CCNC2)c1 [Example 20-7, (S)-3-[(R)-Cyclohexyl-(3-fluorophenoxy)methyl]pyrrolidine]	≤ 100		≤ 10	
FC1(F)CCC(C(Oc2cc(Cl)cc(Cl)c2)C2CCNC2)CC1 (stereo not drawn) [Example 21, 3-[(3,5-Dichloro-phenoxy)-(4,4-difluorocyclohexyl)methyl]pyrrolidine]	≤ 10		≤ 10	
Clc1ccc(O[C@@H](C2CC2)[C@H]2CCNC2)c2ccccc12 [Example 23-2, (S)-3-[(S)-(4-Chloronaphthalen-1-yloxy)cyclopropylmethyl]pyrrolidine]	≤ 100		≤ 10	
C=CC[C@@H](Oc1ccc(Cl)cc1C)[C@H]1CCNC1 [Example 25-2, (S)-3-[(R)-1-(4-Chloro-2-methylphenoxy)but-3-enyl]pyrrolidine]	≤ 10		≤ 100	
C#CC(Oc1ccc(Cl)cc1C)[C@H]1CCNC1 (stereo partly drawn) [Example 27-2, (S)-3-[1-(4-Chloro-2-methylphenoxy)prop-2-ynyl]pyrrolidine]	≤ 10		≤ 100	
